Data reported in patent publication US8063077B2, “Factor Xa inhibitors” (Millennium Pharmaceuticals, Inc., priority 2006, dated 2011).

target: T1, human plasma protein factor Xa (Homo sapiens, UniProt P00742); experiment: Factor Xa IC50 determination, cleavage of paranitroanilide substrate S-2765; type: biochemical; conditions: factor Xa 1 nM, S2765 100 μM, Tris buffered saline pH 7.4, 5% DMSO
T1 construct: The human plasma protein factor Xa was purchased from Haematologic Technologies; purchased Haematologic Technologies (Essex Junction, Vt.); host or cells: human plasma
Source text: This example illustrates methods for evaluating the compounds of the invention, along with results obtained for such assays. The in vitro and in vivo human Factor Xa activities of the inventive compounds can be determined by various procedures known in the art, such as a test for their ability to inhibit the activity of human plasma Factor Xa. […] The IC50 value is the concentration (in nM) of the compound required to provide 50% inhibition of human Factor Xa proteolytic activity.
An in vitro assay for detecting and measuring inhibition activity against Factor Xa is as follows:
The substrate S-2765 (Z-D-Arg-Gly-Arg-pNA•HCl) was obtained from Diapharma (West Chester, Ohio).
The human plasma protein factor Xa was purchased from Haematologic Technologies (Essex Junction, Vt.).
All assays, which are performed in 96-well microtiter plates, measure proteolytic activity of the enzyme (factor Xa) by following cleavage of a paranitroanilide peptide substrate. The assay buffer used for proteolytic assays was Tris buffered saline (20 mM Tris, 150 mM NaCl, 5 mM CaCl2, 0.1% Bovine serum albumin (BSA), 5% Dimethly Sulfoxide (DMSO) pH 7.4). In a 96-well microtiter plate, inhibitor was serially diluted to give a range of final concentrations from 0.01 nM to 10 μM. Duplicate sets of wells were assayed and control wells without inhibitor were included. Enzyme was added to each well, (factor Xa concentration=1 nM), the plate was shaken for 5 seconds and then incubated for 5 minutes at room temperature. S2765 was added (100 μM final) and the plate was shaken for 5 seconds (final volume in each well was 200 μl). The degree of substrate hydrolysis was measured at 405 nm on a Thermomax plate reader (Molecular Devices, Sunnyvale, Calif.) for 2 minutes. The initial velocities of substrate cleavage (mOD/min), for each range of inhibitor concentrations, were fitted to a four parameter equation using Softmax data analysis software. The parameter C, derived from the resulting curve-fit, corresponded to the concentration for half maximal inhibition (IC50).

T1 sequence (P00742 235-488 limits assumed): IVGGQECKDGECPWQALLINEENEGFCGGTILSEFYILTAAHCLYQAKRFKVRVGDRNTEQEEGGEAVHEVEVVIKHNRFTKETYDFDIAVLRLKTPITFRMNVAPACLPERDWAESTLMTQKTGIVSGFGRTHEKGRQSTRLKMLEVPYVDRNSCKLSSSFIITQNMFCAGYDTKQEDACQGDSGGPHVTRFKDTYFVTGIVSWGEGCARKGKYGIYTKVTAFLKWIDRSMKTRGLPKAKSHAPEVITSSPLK
T1 sequence (P00742 41-179 partner limits assumed): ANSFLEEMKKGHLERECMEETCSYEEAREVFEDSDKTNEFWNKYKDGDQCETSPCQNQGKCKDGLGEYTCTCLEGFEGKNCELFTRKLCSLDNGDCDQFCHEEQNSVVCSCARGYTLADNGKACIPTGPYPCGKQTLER

Structure (SMILES)	IC50
CCN1CCN(c2ccc(-n3cnc(CNC(=O)c4ccc(Cl)s4)c3)cc2)C(=O)C1=O [Compound 60, 5-chloro-N-((1-(4-(4-ethyl-2,3-dioxopiperazin-1-yl)phenyl)-1H-imidazol-4-yl)methyl)thiophene-2-carboxamide]	≥ 500 nM
O=C1CN(c2ccc(-n3cnc(CNC(=O)c4ccc(Cl)s4)c3)cc2)C(=O)CN1 [Compound 20, 5-Chloro-N-((1-(4-(2,5-dioxopiperazin-1-yl)phenyl)-1H-imidazol-4-yl)methyl)thiophene-2-carboxamide]	≥ 500 nM
O=C(NCc1cn(-c2ccc(-n3ccccc3=O)cc2)cn1)c1ccc2cc[nH]c2c1 [Compound 31, N-((1-(4-(2-oxopyridin-1(2H)-yl)phenyl)-1H-imidazol-4-yl)methyl)-1H-indole-6-carboxamide]	≥ 500 nM
O=C(NCc1cn(-c2ccc(-n3ccccc3=O)cc2O)cn1)c1ccc(Cl)s1 [Compound 28, 5-Chloro-N-((1-(2-hydroxy-4-(2-oxopyridin-1(2H)-yl)phenyl)-1H-imidazol-4-yl)methyl)thiophene-2-carboxamide]	100 to 500 nM
O=C(NCc1cn(-c2ccc(-n3cccc(OCCO)c3=O)cc2)cn1)c1ccc(Cl)s1 [Compound 59, 5-chloro-N-((1-(4-(3-(2-hydroxyethoxy)-2-oxopyridin-1(2H)-yl)phenyl)-1H-imidazol-4-yl)methyl)thiophene-2-carboxamide]	≤ 100 nM
O=C(NCc1cn(-c2ccc(N3CCNC3=O)cc2)cn1)c1ccc(Cl)s1 [Compound 19, 5-Chloro-N-((1-(4-(2-oxoimidazolidin-1-yl)phenyl)-1H-imidazol-4-yl)methyl)thiophene-2-carboxamide]	100 to 500 nM
O=C(NCc1cn(-c2ccc(-n3ncccc3=O)cc2)cn1)c1ccc(Cl)s1 [Compound 13, 5-Chloro-N-((1-(4-(6-oxopyridazin-1(6H)-yl)phenyl)-1H-imidazol-4-yl)methyl)thiophene-2-carboxamide]	≥ 500 nM
Nc1nc(=O)n(-c2ccc(-n3cnc(CNC(=O)c4ccc(Cl)s4)c3)cc2)cc1F [Compound 50, N-((1-(4-(4-amino-5-fluoro-2-oxopyrimidin-1(2H)-yl)phenyl)-1H-imidazol-4-yl)methyl)-5-chlorothiophene-2-carboxamide]	≤ 100 nM
O=C(NCc1cn(-c2ccc(N3CC[S+]([O-])CC3=O)cc2)cn1)c1ccc(Cl)s1 (stereo not drawn) [Compound 17, 5-Chloro-N-((1-(4-(1,3-dioxothiomorpholino)phenyl)-1H-imidazol-4-yl)methyl)thiophene-2-carboxamide]	100 to 500 nM
O=C(NCc1cn(-c2ccc(-n3ccncc3=O)cc2)cn1)c1ccc(Cl)s1 [Compound 12, 5-Chloro-N-((1-(4-(2-oxopyrazin-1(2H)-yl)phenyl)-1H-imidazol-4-yl)methyl)thiophene-2-carboxamide]	≤ 100 nM
O=C(NCc1cn(-c2ccc(-n3cccc(O)c3=O)cc2)cn1)c1ccc(Cl)s1 [Compound 42, 5-chloro-N-((1-(4-(3-hydroxy-2-oxopyridin-1(2H)-yl)phenyl)-1H-imidazol-4-yl)methyl)thiophene-2-carboxamide]	≤ 100 nM
CS(=O)(=O)c1nc(CNC(=O)c2ccc(Cl)s2)cn1-c1ccc(-n2cc(F)ccc2=O)cc1 [Compound 65, 5-chloro-N-((1-(4-(5-fluoro-2-oxopyridin-1(2H)-yl)phenyl)-2-(methylsulfonyl)-1H-imidazol-4-yl)methyl)thiophene-2-carboxamide]	≤ 100 nM
O=C(NCc1cn(-c2ccc(-n3ccc(O)cc3=O)cc2)cn1)c1ccc(Cl)s1 [Compound 46, 5-chloro-N-((1-(4-(4-hydroxy-2-oxopyridin-1(2H)-yl)phenyl)-1H-imidazol-4-yl)methyl)thiophene-2-carboxamide]	100 to 500 nM

Other lines, results leading:

IC50	Structure (SMILES)
≤ 100 nM	Cc1ccc(=O)n(-c2ccc(-n3cnc(CNC(=O)c4ccc(Cl)s4)c3)cc2)c1 [Compound 45, 5-chloro-N-((1-(4-(5-methyl-2-oxopyridin-1(2H)-yl)phenyl)-1H-imidazol-4-yl)methyl)thiophene-2-carboxamide]
≤ 100 nM	O=C(NCc1cn(-c2ccc(N3CCCNC3=O)cc2)cn1)c1ccc(Cl)s1 [Compound 18, 5-Chloro-N-((1-(4-(2-oxo-tetrahydropyrimidin-1(2H)-yl)phenyl)-1H-imidazol-4-yl)methyl)thiophene-2-carboxamide]
≤ 100 nM	O=C(NCc1cn(-c2ccc(-n3cccc(F)c3=O)cc2)cn1)c1ccc(Cl)s1 [Compound 43, 5-chloro-N-((1-(4-(3-fluoro-2-oxopyridin-1(2H)-yl)phenyl)-1H-imidazol-4-yl)methyl)thiophene-2-carboxamide]
≤ 100 nM	O=C(NCc1cn(-c2ccc(-n3ccccc3=O)cc2OCCN2CCCCC2)cn1)c1ccc(Cl)s1 [Compound 53, 5-chloro-N-((1-(4-(2-oxopyridin-1(2H)-yl)-2-(2-(piperidin-1-yl)ethoxy)phenyl)-1H-imidazol-4-yl)methyl)thiophene-2-carboxamide]
≤ 100 nM	COc1cccn(-c2ccc(-n3cnc(CNC(=O)c4ccc(Cl)s4)c3)cc2)c1=O [Compound 41, 5-chloro-N-((1-(4-(3-methoxy-2-oxopyridin-1(2H)-yl)phenyl)-1H-imidazol-4-yl)methyl)thiophene-2-carboxamide]
≤ 100 nM	Cc1cccn(-c2ccc(-n3cnc(CNC(=O)c4ccc(Cl)s4)c3)cc2)c1=O [Compound 44, 5-chloro-N-((1-(4-(3-methyl-2-oxopyridin-1(2H)-yl)phenyl)-1H-imidazol-4-yl)methyl)thiophene-2-carboxamide]
≤ 100 nM	O=C(NCc1cn(-c2ccc(N3CCOCC3=O)cc2)cn1)c1ccc(Cl)s1 [Compound 11, 5-Chloro-N-((1-(4-(3-oxomorpholino)phenyl)-1H-imidazol-4-yl)methyl)thiophene-2-carboxamide]
≤ 100 nM	CS(=O)(=O)c1cc(-n2ccccc2=O)ccc1-n1cnc(CNC(=O)c2ccc(Cl)s2)c1 [Compound 22, 5-Chloro-N-((1-(2-(methylsulfonyl)-4-(2-oxopyridin-1(2H)-yl)phenyl)-1H-imidazol-4-yl)methyl)thiophene-2-carboxamide]
≤ 100 nM	CS(=O)(=O)c1nc(CNC(=O)c2ccc(Cl)s2)cn1-c1ccc(-n2cccc(F)c2=O)cc1 [Compound 67, 5-chloro-N-((1-(4-(3-fluoro-2-oxopyridin-1(2H)-yl)phenyl)-2-(methylsulfonyl)-1H-imidazol-4-yl)methyl)thiophene-2-carboxamide]
≤ 100 nM	O=C(NCc1cn(-c2ccc(-n3ccc(=O)[nH]c3=O)cc2)cn1)c1ccc(Cl)s1 [Compound 47, 5-chloro-N-((1-(4-(2,4-dioxo-3,4-dihydropyrimidin-1(2H)-yl)phenyl)-1H-imidazol-4-yl)methyl)thiophene-2-carboxamide]
≤ 100 nM	O=C(NCc1cn(-c2ccc(N3CCSCC3=O)cc2)cn1)c1ccc(Cl)s1 [Compound 15, 5-Chloro-N-((1-(4-(3-oxothiomorpholino)phenyl)-1H-imidazol-4-yl)methyl)thiophene-2-carboxamide]
≤ 100 nM	O=C(NCc1cn(-c2ccc(-n3ccccc3=S)cc2)cn1)c1ccc(Cl)s1 [Compound 30, 5-Chloro-N-((1-(4-(2-thioxopyridin-1(2H)-yl)phenyl)-1H-imidazol-4-yl)methyl)thiophene-2-carboxamide]
≤ 100 nM	O=C(NCc1cn(-c2ccc(-n3ccccc3=O)cc2NCCO)cn1)c1ccc(Cl)s1 [Compound 27, 5-Chloro-N-((1-(2-(2-hydroxyethylamino)-4-(2-oxopyridin-1(2H)-yl)phenyl)-1H-imidazol-4-yl)methyl)thiophene-2-carboxamide]
≤ 100 nM	N#C/N=c1\ccccn1-c1ccc(-n2cnc(CNC(=O)c3ccc(Cl)s3)c2)cc1 [Compound 33, (E)-5-chloro-N-((1-(4-(2-(cyanoimino)pyridin-1(2H)-yl)phenyl)-1H-imidazol-4-yl)methyl)thiophene-2-carboxamide]
≤ 100 nM	CSc1nc(CNC(=O)c2ccc(Cl)s2)cn1-c1ccc(-n2ccccc2=O)cc1 [Compound 55, 5-chloro-N-((2-(methylthio)-1-(4-(2-oxopyridin-1(2H)-yl)phenyl)-1H-imidazol-4-yl)methyl)thiophene-2-carboxamide]
≤ 100 nM	Nc1ccn(-c2ccc(-n3cnc(CNC(=O)c4ccc(Cl)s4)c3)cc2)c(=O)n1 [Compound 48, N-((1-(4-(4-amino-2-oxopyrimidin-1(2H)-yl)phenyl)-1H-imidazol-4-yl)methyl)-5-chlorothiophene-2-carboxamide]
≤ 100 nM	CC(=O)/N=c1\ccccn1-c1ccc(-n2cnc(CNC(=O)c3ccc(Cl)s3)c2)cc1 [Compound 36, (E)-N-((1-(4-(2-(acetylimino)pyridin-1(2H)-yl)phenyl)-1H-imidazol-4-yl)methyl)-5-chlorothiophene-2-carboxamide]
